The values below come from patent US5925631A, “Alkylated styrenes as prodrugs to COX-2 inhibitors” (Merck & Co., Inc., priority 1998, dated 1999).

In general, ED50 refers to the midpoint of the dose-response relation.

The subject of this test is Rat Paw Edema. Put plainly: Rat paw edema assay (carrageenan). Particulars: po, p.o. 1 h before subplantar carrageenan (500 μg per paw), paw volume at 3 h, read-out: Rat Paw Edema ED50, dose of prodrug required to reduce edema formation by 50% as compared to vehicle control. It counts as in vivo, rat (Male Sprague-Dawley). As for the experimental part:
Male Sprague-Dawley rats (150-200 g) are fasted overnight and are given, p0, either vehicle (1% methocel or 5% Tween 80) or a test compound. One hr later, a line is drawn using a permanent marker at the level above the ankle in one hind paw to define the area of the paw to be monitored. The paw volume (V0) is measured using a plethysmometer (Ugo-Basile, Italy) based on the principle of water displacement. The animals are then injected subplantarly with 50 μl of 1% carrageenan solution in saline (FMC Corp, Me.) into the paw using an insulin syringe with a 25-gauge needle (i.e. 500 μg carrageenan per paw). Three hr later, the paw volume (V3) is measured and the increases in paw volume (V3 - VO) are calculated. The animals are sacrificed by CO2 asphyxiation and the absence or presence of stomach lesions scored. Data is compared with the vehicle-control values and percent inhibition calculated. All treatment groups are coded to eliminate observer bias.
Compounds of the present invention are prodrugs of inhibitors of COX-2 and are thereby useful in the treatment of COX-2 mediated diseases as enumerated above. The extent of conversion of these compounds to the active COX-2 inhibitors may be seen in the representative results shown in Table III along with their antiinflammatory activity. The plasma levels indicated are the maximum rat plasma concentrations of the active COX-2 inhibitor observed when the rat was treated with a 20 mg/kg oral dose of the indicated prodrug. The ED50 values in the rat paw edema assay represent the dose of prodrug required to reduce edema formation by 50% as compared to the vehicle control.
As for `COC(=O)/C(=C(/c1ccc(S(C)(=O)=O)cc1)C(C)(C)OC)c1cccc(F)c1` [Example 6, Methyl 2-(3-fluorophenyl)-4-methoxy-4-methyl-3-(4-(methylsulfonyl)phenyl)-2-(Z)-pentenoate], the ED50 was 2.1 mg/kg.
The same measure for `COC(C)(C)/C(=C(\C(=O)N(C)C)c1cccc(F)c1)c1ccc(S(C)(=O)=O)cc1` [Example 4, N,N-Dimethyl-2-(3-fluorophenyl)-4-methoxy-4-methyl-3-(4-(methylsulfonyl)phenyl)-2-(Z)-pentenamide]: 1.6 mg/kg; for `CC(C)(O)/C(=C(\CO)c1cccc(F)c1)c1ccc(S(C)(=O)=O)cc1` [Example 1, 2-(3-Fluorophenyl)-4-methyl-3-(4-(methylsulfonyl)-phenyl)-2-(Z)-penten-1,4-diol]: 10 mg/kg.
